One assay concerns the target GCN2 kinase (Homo sapiens (Human), UniProt Q9P2K8). The assay is described as follows: GCN2 Enzyme Inhibition Assay (Transcreener ADP2 fluorescence polarization). The assay is classed as biochemical. As to conditions: 280 μM ATP, 200 μM (RS)7 peptide, 4 nM GCN2, 25° C.; for Ki: Ki(app). An outline of the steps:
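Transcreener ADP2 fluorescence polarization detection of ADP from 4 nM GCN2 with (RS)7 substrate in 25 mM Tris-HCl pH 7.5, 50 mM NaCl, 10 mM MgCl2, 1 mM DTT. Compound pre-incubated with enzyme 10 min at 25 °C; reaction started by ATP, run 1 h at 25 °C. IC50 and Ki(app) by tight-binding fit.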
Background: In fluorescence polarisation assays a small probe gives low polarisation when free and higher when bound to something large.

Assay [1] addresses intracellular GCN2 (phosphorylation of the GCN2 substrate eIF2α) (Homo sapiens (Human), UniProt Q9P2K8). The assay is described as follows: GCN2 Cellular Inhibition Assay (AlphaScreen SureFire P-eIF2α Ser51, borrelidin-treated U2OS cells). The assay is classed as cell-based. The conditions noted are these: 10 μM borrelidin, 1 h. As to the method: Compounds can be screened for their ability to inhibit intracellular GCN2 using an AlphaScreen assay (Perkin Elmer) to detect phosphorylation of the GCN2 substrate eIF2α in borrelidin-treated cells. U2OS cells are plated at 5,000 cells per well in 384-well white polystyrene plates (Corning 3570) in McCoy's 5A media (GIBCO 26600-023) supplemented with 10% foetal bovine serum (SAFC 12103C), Penicillin/Streptomycin solution diluted 1:100 (Sigma P0781), and 2 mM L-glutamine (Sigma G7513), and allowed to adhere overnight at 37° C. in 5% CO2. Compounds are then added to the cell media from a final concentration of 40 μM in 4-fold serial dilutions. Borrelidin (FluoroChem M01440) is immediately added to the wells to a final concentration of 10 μM and the cells are incubated for 1 h at 37° C. in 5% CO2. After 1 h of treatment with borrelidin, the media is removed, and the cells are lysed with lysis buffer (TGR BioSceinces TGRLB) at ambient temperature.
An AlphaScreen SureFire P-eIF2α (Ser51) assay kit (Perkin Elmer TGREIF2S) was used to measure levels of eIF2α phosphorylated on Serine 51. Anti-phosphorylated eIF2α Ser51 antibody-linked acceptor beads (TGR BioScience 6760617) are added to the cell homogenate (diluted 1:250 into a mixture of activation (TGR BioScience TGRAB) and reaction buffer (TGR BioScience TGREIF2S) prepared immediately before use). The plate is then incubated for 2 h at ambient temperature in the dark. Anti-eIF2α antibody-linked donor beads (TGR BioScience 6760617) were then added (diluted 1:100 in dilution buffer (TGR BioScience TGRDB) prepared immediately before use). The plate is then incubated overnight at ambient temperature in the dark.
Plates are analyzed on an Alpha Technology-compatible PHERAstar FS plate reader (BMG Labtech Version 1.14) to quantify phosphorylated eIF2α Ser51 levels. The percentage inhibition of phosphorylated eIF2α is calculated by comparison to control wells stimulated with borrelidin alone.

[2] abbreviates: phosphorylated eIF2α Ser51, read-out: GCN2 Biomarker (IC50).

Read-outs that look alike come from different tables or passages of the source. Bounds are passed on as bounds.

GCN2 kinase, sequence (Q9P2K8 whole entry): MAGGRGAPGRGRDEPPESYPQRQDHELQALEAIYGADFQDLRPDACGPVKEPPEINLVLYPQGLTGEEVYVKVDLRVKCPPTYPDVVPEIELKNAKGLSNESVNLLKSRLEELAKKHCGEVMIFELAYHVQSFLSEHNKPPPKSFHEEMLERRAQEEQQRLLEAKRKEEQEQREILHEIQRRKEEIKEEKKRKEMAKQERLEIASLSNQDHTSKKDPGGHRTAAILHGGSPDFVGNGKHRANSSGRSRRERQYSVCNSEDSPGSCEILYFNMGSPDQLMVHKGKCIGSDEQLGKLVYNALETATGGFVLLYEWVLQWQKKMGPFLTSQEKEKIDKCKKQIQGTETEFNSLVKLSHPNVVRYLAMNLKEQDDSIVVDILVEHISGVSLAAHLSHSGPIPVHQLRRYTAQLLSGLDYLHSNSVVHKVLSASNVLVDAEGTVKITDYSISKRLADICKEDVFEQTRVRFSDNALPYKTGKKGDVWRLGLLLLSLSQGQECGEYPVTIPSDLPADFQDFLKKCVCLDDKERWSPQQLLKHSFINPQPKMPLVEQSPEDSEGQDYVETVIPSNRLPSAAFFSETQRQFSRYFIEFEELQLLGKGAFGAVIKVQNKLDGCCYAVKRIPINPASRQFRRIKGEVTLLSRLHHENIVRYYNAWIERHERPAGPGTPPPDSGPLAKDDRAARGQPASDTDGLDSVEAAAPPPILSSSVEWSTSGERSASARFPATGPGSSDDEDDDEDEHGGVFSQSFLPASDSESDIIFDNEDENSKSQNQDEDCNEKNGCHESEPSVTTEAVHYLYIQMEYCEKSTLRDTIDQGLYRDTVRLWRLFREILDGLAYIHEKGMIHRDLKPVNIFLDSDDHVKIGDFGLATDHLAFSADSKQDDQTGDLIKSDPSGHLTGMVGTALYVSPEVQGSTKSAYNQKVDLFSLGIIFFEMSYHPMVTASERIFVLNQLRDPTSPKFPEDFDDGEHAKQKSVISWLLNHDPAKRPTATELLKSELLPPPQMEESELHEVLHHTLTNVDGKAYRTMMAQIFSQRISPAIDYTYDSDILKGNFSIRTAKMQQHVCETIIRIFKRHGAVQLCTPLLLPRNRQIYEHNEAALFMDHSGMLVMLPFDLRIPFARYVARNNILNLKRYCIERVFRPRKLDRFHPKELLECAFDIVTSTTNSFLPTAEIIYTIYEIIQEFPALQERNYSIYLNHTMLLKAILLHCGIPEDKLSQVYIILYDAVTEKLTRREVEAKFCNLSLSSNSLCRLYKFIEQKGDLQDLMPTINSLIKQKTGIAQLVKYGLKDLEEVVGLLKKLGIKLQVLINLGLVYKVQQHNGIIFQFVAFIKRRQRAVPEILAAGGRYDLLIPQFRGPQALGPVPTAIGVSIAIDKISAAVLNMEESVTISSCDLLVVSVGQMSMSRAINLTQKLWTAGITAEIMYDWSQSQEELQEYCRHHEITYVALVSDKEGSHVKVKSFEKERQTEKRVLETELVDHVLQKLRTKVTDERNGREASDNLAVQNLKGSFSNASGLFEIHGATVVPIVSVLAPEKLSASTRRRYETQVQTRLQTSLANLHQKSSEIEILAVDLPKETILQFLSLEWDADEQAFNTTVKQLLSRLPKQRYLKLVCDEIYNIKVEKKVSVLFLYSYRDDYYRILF
intracellular GCN2 (phosphorylation of the GCN2 substrate eIF2α), sequence (Q9P2K8 whole entry): as above

As to `Cc1noc([C@H]2CN(c3ccnc(-c4cnc5cc(F)c(Cl)cn45)n3)C[C@@H](C)O2)n1` (relative stereo) [I-56, 6-Chloro-7-fluoro-3-{4-[cis-2-methyl-6-(3-methyl-[1,2,4]oxadiazol-5-yl)-morpholin-4-yl]-pyrimidin-2-yl}-imidazo[1,2-a]pyridine], the Ki on GCN2 kinase lay within 10 to 100 nM. Besides, the IC50 in assay [1] (GCN2 Biomarker (IC50), phosphorylated eIF2α Ser51) lay within 500 to 5000 nM. `CC1CN(c2nccc(-c3cnc4ccc(C(F)(F)F)cn34)n2)C(C)C(c2cn[nH]c2)N1` (single isomer, unassigned) [I-33, 3-[2-[2,5-Dimethyl-3-(1H-pyrazol-4-yl)piperazin-1-yl]pyrimidin-4-yl]-6-(trifluoromethyl)imidazo[1,2-a]pyridine] gave a Ki at GCN2 kinase of 10 to 100 nM. Further, the IC50 in assay [1] (setting [2]) is over 5000 nM. The corresponding values for `CC1CN(c2nccc(-c3cnc4ccc(C(F)(F)F)cn34)n2)C(C)C(c2cn[nH]c2)N1` (single isomer, unassigned) [I-34, 3-[2-[2,5-dimethyl-3-(1H-pyrazol-4-yl)piperazin-1-yl]pyrimidin-4-yl]-6-(trifluoromethyl)imidazo[1,2-a]pyridine] are under 10 nM and under 500 nM.

In turn, `C[C@H]1CN(c2ccnc(-c3cnc4ccc(C(F)(F)F)cn34)n2)C[C@@H](CNS(C)(=O)=O)C1(F)F` (stereo in doubt) [I-8, N-[[-4,4-Difluoro-5-methyl-1-[2-[6-(trifluoromethyl)imidazo[1,2-a]pyridin-3-yl]pyrimidin-4-yl]-3-piperidyl]methyl]methanesulfonamide] returned a Ki on GCN2 kinase of 10 to 100 nM. Besides, the concentration for half-maximal inhibition (IC50) in assay [1] (setting [2]) lay in the range of 500 to 5000 nM. The corresponding values for `CS(=N)(=O)C[C@H]1CCCN(c2ccnc(-c3cnc4ccc(Cl)cn34)n2)C1` (stereo in doubt) [I-21, 6-Chloro-3-(4-(3-((methylsulfonimidoyl)methyl)piperidin-1-yl)pyrimidin-2-yl)imidazo[1,2-a]pyridine] are 10 to 100 nM and 500 to 5000 nM. As for `C[C@H]1CN(c2ccnc(-c3cnc4ccc(C(F)(F)F)cn34)n2)[C@@H](C)[C@@H](c2cn[nH]c2)N1` (stereo in doubt) [I-37, 3-[4-[2,5-Dimethyl-3-(1H-pyrazol-4-yl)piperazin-1-yl]pyrimidin-2-yl]-6-(trifluoromethyl)imidazo[1,2-a]pyridine], the Ki at GCN2 kinase is under 10 nM. Moreover, in assay [1] (setting [2]), the half-maximal inhibitory concentration (IC50) is under 500 nM. Taken in the same sequence, the figures for `C[C@H]1CN(c2nccc(-c3cnc4ccc(C(F)F)cn34)n2)C[C@@H](CNS(C)(=O)=O)C1(F)F` (stereo in doubt) [I-41, N-[[-1-[4-[6-(Difluoromethyl)imidazo[1,2-a]pyridin-3-yl]pyrimidin-2-yl]-4,4-difluoro-5-methyl-3-piperidyl]methyl]methanesulfonamide] were under 10 nM and 500 to 5000 nM.

At GCN2 kinase, `Cc1noc([C@H]2CN(c3ccnc(-c4cnc5ccc(C(F)(F)F)cn45)n3)C[C@@H](C)O2)n1` (stereo in doubt) [I-90, 2-methyl-6-(3-methyl-1,2,4-oxadiazol-5-yl)-4-{2-[6-(trifluoromethyl)imidazo[1,2-a]pyridin-3-yl]pyrimidin-4-yl}morpholine] gave a Ki of under 10 nM. For the same compound, the IC50 in assay [1] (setting [2]) is under 500 nM.

As to `C[C@H]1CN(c2nccc(-c3cnc4ccc(C(F)(F)F)cn34)n2)CC(c2cc[nH]n2)O1` (stereo in doubt) [I-138, (2S,6R)-2-methyl-6-(1H-pyrazol-3-yl)-4-(4-(6-(trifluoromethyl)imidazo[1,2-a]pyridin-3-yl)pyrimidin-2-yl)morpholine], the half-inhibitory concentration (IC50) was 10 to 100 nM against GCN2 kinase and under 500 nM in assay [1] (setting [2]). Taken in the same sequence, the figures for `C[C@H]1C[C@@H](N=S(C)(C)=O)CN(c2nccc(-c3cnc4ccc(Cl)cn34)n2)C1` (stereo in doubt) [I-159, (((3R,5S)-1-(4-(6-chloroimidazo[1,2-a]pyridin-3-yl)pyrimidin-2-yl)-5-methylpiperidin-3-yl)imino)dimethyl-λ6-sulfanone] were 10 to 100 nM and under 500 nM.

As to `C[C@H]1CN(c2ccnc(-c3cnc4ccc(Cl)cn34)n2)C[C@H](c2cn[nH]c2F)O1` (stereo in doubt) [I-175, (2S,6S)-4-(2-(6-chloroimidazo[1,2-a]pyridin-3-yl)pyrimidin-4-yl)-2-(5-fluoro-1H-pyrazol-4-yl)-6-methylmorpholine], the IC50 was under 10 nM on GCN2 kinase and under 500 nM in assay [1] (setting [2]). `Cc1[nH]ncc1[C@H]1CN(c2nccc(-c3cnc4ccc(Cl)cn34)n2)C[C@H](C)O1` (stereo in doubt) [I-181, (2S,6S)-4-(4-(6-chloroimidazo[1,2-a]pyridin-3-yl)pyrimidin-2-yl)-2-methyl-6-(5-methyl-1H-pyrazol-4-yl)morpholine]: the IC50 against GCN2 kinase lay within 10 to 100 nM; in assay [1] (setting [2]), 500 to 5000 nM.

With `Cc1[nH]ncc1[C@@H]1CN(c2nccc(-c3cnc4ccc(Cl)cn34)n2)C[C@@H](C)O1` (stereo in doubt) [I-182, (2R,6R)-4-(4-(6-chloroimidazo[1,2-a]pyridin-3-yl)pyrimidin-2-yl)-2-methyl-6-(5-methyl-1H-pyrazol-4-yl)morpholine], the half-inhibitory concentration (IC50) on GCN2 kinase was 10 to 100 nM; in assay [1] (setting [2]), under 500 nM. As to `FC(F)(F)c1ccc2ncc(-c3nccc(N4CCOC(c5cn[nH]c5)C4)n3)n2c1` (stereo not drawn) [I-2, 1H-Pyrazol-4-yl-4-[2-[6-(trifluoromethyl)imidazo[1,2-a]pyridin-3-yl]pyrimidin-4-yl]morpholine], the IC50 in assay [1] (setting [2]) was under 500 nM. Still for that read-out and setting: as for `FC(F)(F)c1ccc2ncc(-c3nccc(N4CCOC(c5cn[nH]c5)C4)n3)n2c1` (stereo not drawn) [I-3, 1H-pyrazol-4-yl-4-[2-[6-(trifluoromethyl)imidazo[1,2-a]pyridin-3-yl]pyrimidin-4-yl]morpholine], the figure is under 500 nM; as for `FC(F)(F)c1ccc2ncc(-c3ccnc(N4CCOC(c5cn[nH]c5)C4)n3)n2c1` (stereo not drawn) [I-10, 2-(1H-pyrazol-4-yl)-4-(4-(6-(trifluoromethyl)imidazo[1,2-a]pyridin-3-yl)pyrimidin-2-yl)morpholine], under 500 nM; as for `FC(F)(F)c1ccc2ncc(-c3ccnc(N4CCOC(c5cn[nH]c5)C4)n3)n2c1` (stereo not drawn) [I-44, 2-(1H-Pyrazol-4-yl)-4-[4-[6-(trifluoromethyl)imidazo[1,2-a]pyridin-3-yl]pyrimidin-2-yl]morpholine], under 500 nM. Still for that read-out and setting: with `C[C@@H]1CN(c2nccc(-c3cnc4ccc(C(F)(F)F)cn34)n2)C[C@H](c2cn[nH]c2)O1` [I-118] the figure was under 500 nM.

In the case of `Cc1n[nH]cc1[C@H]1CN(c2ccnc(-c3cnc4ccc(C(F)(F)F)cn34)n2)C[C@@H](C)O1` [I-120], the IC50 in assay [1] (setting [2]) is under 500 nM. Still for that read-out and setting: with `FC(F)(F)c1ccc2ncc(-c3nccc(N4CCN(C[C@@H]5CC56CC6)[C@H](c5cn[nH]c5)C4)n3)n2c1` [I-552, 3-(4-((R)-3-(1H-pyrazol-4-yl)-4-(((R)-spiro[2.2]pentan-1-yl)methyl)piperazin-1-yl)pyrimidin-2-yl)-6-(trifluoromethyl)imidazo[1,2-a]pyridine] the figure was under 500 nM; with `FC(F)(F)c1ccc2ncc(-c3nccc(N4CCN(C[C@H]5CC56CC6)[C@@H](c5cn[nH]c5)C4)n3)n2c1` [I-553, 3-(4-((S)-3-(1H-pyrazol-4-yl)-4-(((S)-spiro[2.2]pentan-1-yl)methyl)piperazin-1-yl)pyrimidin-2-yl)-6-(trifluoromethyl)imidazo[1,2-a]pyridine], under 500 nM. Take `FC(F)(F)c1ccc2ncc(-c3nccc(N4CCN(C[C@@H]5CC56CC6)[C@@H](c5cn[nH]c5)C4)n3)n2c1` [I-554, 3-(4-((S)-3-(1H-pyrazol-4-yl)-4-(((R)-spiro[2.2]pentan-1-yl)methyl)piperazin-1-yl)pyrimidin-2-yl)-6-(trifluoromethyl)imidazo[1,2-a]pyridine]: the IC50 in assay [1] (setting [2]) is under 500 nM. On the same count and under the same terms, as for `O=S1(=O)CC2(CC(N3CCN(c4ccnc(-c5cnc6ccc(C(F)(F)F)cn56)n4)C[C@@H]3c3cn[nH]c3)C2)C1` [I-556, (S)-6-(2-(1H-pyrazol-4-yl)-4-(2-(6-(trifluoromethyl)imidazo[1,2-a]pyridin-3-yl)pyrimidin-4-yl)piperazin-1-yl)-2-thiaspiro[3.3]heptane 2,2-dioxide], the figure is 500 to 5000 nM.

In general, IC50 refers to the point on the concentration scale where inhibition reaches its midpoint.
